The subject of one data set is HCT-116. The data set is described as follows: MTT cytotoxicity assay, HCT-116. The data set is classed as cell-based. The note with it: read-out: IC50 HCT-116, 72h. For orientation: Tetrazolium dyes change colour on reduction, which living cells bring about.
Data set [1] deals with PD002. In words: MTT cytotoxicity assay, PD002. The note with it: read-out: IC50 PD002; MTT assay, 72h. The data set is classed as cell-based, human.
For a further data set, the system named is PANC-1. The data set is described as follows: MTT cytotoxicity assay, PANC-1. The settings on record: read-out: IC50 PANC-1, 72h. Type of data set: cell-based, human.
The target of a further data set is DPAGT1 (Human) (Homo sapiens, UniProt Q9H3H5). The data set is described as follows: DPAGT1 assay. Type of data set: biochemical. The note with it: read-out: IC50 DPAGT1 (Human).
Chain of DPAGT1 (Human) (Q9H3H5 whole entry): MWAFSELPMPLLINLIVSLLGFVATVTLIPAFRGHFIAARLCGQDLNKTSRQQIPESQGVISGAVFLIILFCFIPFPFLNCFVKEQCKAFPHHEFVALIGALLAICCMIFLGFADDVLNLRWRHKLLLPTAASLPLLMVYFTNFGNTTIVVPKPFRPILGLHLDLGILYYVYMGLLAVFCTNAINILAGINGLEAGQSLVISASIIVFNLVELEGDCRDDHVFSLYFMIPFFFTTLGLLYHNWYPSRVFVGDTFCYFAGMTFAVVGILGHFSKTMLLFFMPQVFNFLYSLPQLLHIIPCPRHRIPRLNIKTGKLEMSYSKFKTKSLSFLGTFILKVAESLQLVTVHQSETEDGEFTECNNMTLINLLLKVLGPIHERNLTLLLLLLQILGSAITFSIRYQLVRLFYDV
A further data set has as its system AsPC-1. In words: MTT cytotoxicity assay, AsPC-1. Type of data set: cell-based, human. The note with it: read-out: IC50 AsPC-1, 72h.
Data set [2] concerns PD002. In words: Scratch. The data set is classed as cell-based, human. The note with it: PD002, 24h, 0.2 μM; untreated 63%.
For a further data set, the system named is SiHa. The data set is described as follows: MTT cytotoxicity assay, SiHa. The data set is classed as cell-based, human. The note with it: read-out: IC50 SiHa, 72h.
In another data set the test system is MraY/MurX. The note with it: read-out: IC50 MraY/MurX; ref [9],[10]; cited from earlier work.
A further data set relates to L1210. The data set is described as follows: MTT cytotoxicity assay, L1210. Type of data set: cell-based, mouse. The settings on record: read-out: IC50 L1210, 72h.
The next data set has as its system DPAGT1. The settings on record: read-out: IC50 DPAGT1; ref [9],[10]; cited from earlier work.
Data set [3] addresses MraY (Hydrogenivirga sp.) (Hydrogenivirga sp. 128-5-R1-1, UniProt Z9Y2G8N0L0). The data set is described as follows: MraY assay. The data set is classed as biochemical. The settings on record: read-out: IC50 MraY (Hydrogenivirga sp.).
A further data set concerns KB. The data set is described as follows: MTT cytotoxicity assay, KB. Type of data set: cell-based, human. The settings on record: read-out: IC50 KB, 72h.
The next data set has as its system DPAGT1 gene. In words: RT-qPCR of DPAGT1 gene expression in PD002. The data set is classed as cell-based, human. The note with it: 10 μM, 24h at 37 °C.
The conditions of data set [4]: cited from earlier work.
Another data set has as its system HPNE. The data set is described as follows: MTT cytotoxicity assay, HPNE. The settings on record: read-out: IC50 HPNE; MTT assay, 72h; normal pancreatic ductal cell. The data set is classed as cell-based.
The target of another data set is WecA (E. coli) (Escherichia coli, UniProt P0AC78). In words: WecA assay. The note with it: read-out: IC50 WecA (E. coli).
Chain of WecA (E. coli) (P0AC78 whole entry): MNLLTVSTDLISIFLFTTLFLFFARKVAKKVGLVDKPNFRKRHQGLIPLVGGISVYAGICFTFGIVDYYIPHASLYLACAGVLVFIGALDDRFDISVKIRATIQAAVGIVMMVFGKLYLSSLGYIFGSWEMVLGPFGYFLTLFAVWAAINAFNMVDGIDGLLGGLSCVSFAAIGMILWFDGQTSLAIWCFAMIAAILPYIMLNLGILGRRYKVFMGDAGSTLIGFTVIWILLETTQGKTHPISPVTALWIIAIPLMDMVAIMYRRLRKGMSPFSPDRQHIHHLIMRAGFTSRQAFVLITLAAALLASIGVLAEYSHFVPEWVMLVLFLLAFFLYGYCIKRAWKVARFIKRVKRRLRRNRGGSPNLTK
A further data set has as its system WecA. The settings on record: read-out: IC50 WecA; ref [9],[10]; cited from earlier work.
Another data set has as its system Capan-1. In words: MTT cytotoxicity assay, Capan-1. The note with it: read-out: IC50 Capan-1, 72h. Type of data set: cell-based, human.
The next data set relates to DLD-1. The data set is described as follows: MTT cytotoxicity assay, DLD-1. The data set is classed as cell-based. The note with it: read-out: IC50 DLD-1, 72h.
The target of a further data set is AglH (M. jannaschii) (Methanocaldococcus jannaschii, UniProt Q58513). In words: AglH assay. Type of data set: biochemical. The settings on record: read-out: IC50 AglH (M. jannaschii).
Chain of AglH (M. jannaschii) (Q58513 whole entry): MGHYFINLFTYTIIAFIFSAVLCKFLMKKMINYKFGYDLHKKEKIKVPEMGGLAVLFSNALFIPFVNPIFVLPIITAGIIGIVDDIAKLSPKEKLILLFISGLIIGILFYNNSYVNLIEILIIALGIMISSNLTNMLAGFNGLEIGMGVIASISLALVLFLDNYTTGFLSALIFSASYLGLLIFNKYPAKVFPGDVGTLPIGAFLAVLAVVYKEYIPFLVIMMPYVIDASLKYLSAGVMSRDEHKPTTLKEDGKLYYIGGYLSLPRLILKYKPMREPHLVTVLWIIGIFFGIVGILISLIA
Another data set deals with Vero. The data set is described as follows: MTT cytotoxicity assay, Vero. The data set is classed as cell-based, Cercopithecus aethiops. The settings on record: read-out: IC50 Vero, 72h, normal kidney cell.

Where two headings read alike, the source gives them in different places.

Chain of MraY (Hydrogenivirga sp.) (Z9Y2G8N0L0 7-365 limits assumed): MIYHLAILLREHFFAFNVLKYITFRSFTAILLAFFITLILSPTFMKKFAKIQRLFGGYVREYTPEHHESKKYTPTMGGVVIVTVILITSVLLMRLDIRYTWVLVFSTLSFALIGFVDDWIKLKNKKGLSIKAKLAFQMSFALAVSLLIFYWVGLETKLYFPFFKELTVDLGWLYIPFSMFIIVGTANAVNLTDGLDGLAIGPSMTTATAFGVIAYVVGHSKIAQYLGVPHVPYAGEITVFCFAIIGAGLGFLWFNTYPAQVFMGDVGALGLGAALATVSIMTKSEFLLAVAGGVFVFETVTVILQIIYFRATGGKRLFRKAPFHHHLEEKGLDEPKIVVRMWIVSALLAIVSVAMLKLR

As a reminder, the LD50 is the dose expected to kill half of the subjects tested. For Tunicamycin, the IC50 with HCT-116 stood at 0.92 µM; in the data set on PD002 [1], 1.5 µM; in the data set on PANC-1, 1.5 µM; on DPAGT1 (Human), 1.5 µM; with AsPC-1, 0.45 µM; with SiHa, 0.92 µM. The IC50 is 2.9 µM in the data set on MraY/MurX; 1.7 µM with L1210; 1.5 µM in the data set with DPAGT1; 2.9 µM in data set [3]; 2.5 µM in the data set with KB; 7.5 µM in the data set with HPNE. Further, the IC50 at WecA (E. coli) is 0.15 µM; in the data set on WecA, 0.15 µM; in the data set with Capan-1, 1.5 µM; with DLD-1 it was 1.25 µM; on AglH (M. jannaschii) it was 13.2 µM; in the data set with Vero, 0.78 µM. Also, the wound-healing rate with PD002 [2] worked out at 35%. This substance also registered a PD002 killed in the data set on DPAGT1 gene of 100%. Also, the 50% lethal dose (LD50) in [4] (mice, IP, ref [18],[19]) is recorded as 2.0 mg/kg; in data set [4] (mouse, ref [10],[18]), 2.0 mg/kg. For the same substance, the LD100 in data set [4] (mice, IP, ref [18],[19]) is on record as 3.5 mg/kg.

These data come from article PMC7554145 (Journal of medicinal chemistry, 2020).
